This note sets out measurements from article PMC9404513 (ACS Omega, 2022).

Usually IC50 stands for the concentration that gives 50% inhibition. A high value points to weaker potency in that assay.

One data set addresses T1, MAO-A (Homo sapiens, UniProt P21397).
T1 sequence (P21397 1-527): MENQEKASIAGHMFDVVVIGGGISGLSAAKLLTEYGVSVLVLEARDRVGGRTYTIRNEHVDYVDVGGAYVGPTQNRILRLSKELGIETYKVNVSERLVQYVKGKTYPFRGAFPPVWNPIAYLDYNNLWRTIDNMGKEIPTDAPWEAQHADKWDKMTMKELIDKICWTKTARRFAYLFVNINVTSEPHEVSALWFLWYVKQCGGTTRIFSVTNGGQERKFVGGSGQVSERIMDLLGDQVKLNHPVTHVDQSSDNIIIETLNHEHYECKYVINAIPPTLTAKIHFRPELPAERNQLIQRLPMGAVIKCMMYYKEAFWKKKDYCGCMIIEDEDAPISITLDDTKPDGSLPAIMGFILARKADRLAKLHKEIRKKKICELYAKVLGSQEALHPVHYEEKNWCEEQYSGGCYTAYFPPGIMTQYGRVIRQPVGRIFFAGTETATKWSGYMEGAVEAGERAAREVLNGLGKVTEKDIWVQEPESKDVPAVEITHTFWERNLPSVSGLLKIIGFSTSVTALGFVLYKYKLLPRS
Put plainly: Monoamine oxidase A inhibition. Type of data set: biochemical.

The nature of data set [1]: Solubility in organic solvents. Type of data set: physicochemical. To be noted: solvents in which the compound is soluble.
For a further data set, the target named is T2, MAO-B (Homo sapiens, UniProt P27338).
T2 sequence (P27338 1-520): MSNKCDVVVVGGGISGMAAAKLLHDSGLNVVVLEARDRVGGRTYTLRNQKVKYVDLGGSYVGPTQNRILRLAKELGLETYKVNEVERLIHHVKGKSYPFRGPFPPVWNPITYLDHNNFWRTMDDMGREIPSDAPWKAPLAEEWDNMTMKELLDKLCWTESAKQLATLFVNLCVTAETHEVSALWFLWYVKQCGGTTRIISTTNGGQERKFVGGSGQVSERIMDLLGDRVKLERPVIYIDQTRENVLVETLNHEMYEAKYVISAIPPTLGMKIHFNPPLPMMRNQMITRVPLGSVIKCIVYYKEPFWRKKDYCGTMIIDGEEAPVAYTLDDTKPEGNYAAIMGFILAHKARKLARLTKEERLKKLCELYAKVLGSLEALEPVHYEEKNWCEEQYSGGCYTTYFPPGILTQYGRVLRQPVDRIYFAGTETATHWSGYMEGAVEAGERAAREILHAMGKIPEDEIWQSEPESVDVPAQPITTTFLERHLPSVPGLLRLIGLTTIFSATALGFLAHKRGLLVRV
Nature of the data set: Monoamine oxidase B inhibition. It is filed as biochemical.

With `CCOC(=O)C1=C(Nc2ccc(F)cc2)CC(c2ccc(C(F)(F)F)cc2)N(c2ccc(F)cc2)C1c1ccc(C(F)(F)F)cc1` (stereo not drawn) [FTEAA, Ethyl 4-(4-fluorophenylamino)-2,6-bis(4-(trifluoromethyl)phenyl)-1-(4-fluoro-phenyl)-1,2,5,6-tetrahydropyridine-3-carboxylate], the values for the IC50 on MAO-A and on MAO-B were 520 ± 30 nM and 1020 ± 110 nM, respectively. Besides, the solubility entry in data set [1] is “acetone, chloroform, dichloromethane, ethyl acetate and ethanol”.
